Where two headings read alike, the source gives them in different places.
How the values were obtained:
Assay type in all cases: cell-based, human
[1] = tested on: HEK293 S1PR1 expressing cells; experiment: EGF-mediated ERK1/2 phosphorylation in HEK293 S1PR1 expressing cells (inhibitor specificity control); settings: CCG215022 50 µM, 20 nM EGF for 5 min
Experimental: HEK293 cells were plated in 96 multi-well plates and grown until 90% confluent. After the S1P-starvation, the cell monolayers were treated as described in the text and then processed using the ERK1/2 (pT202/Y204 + Total) ELISA Kit from Abcam (cat n. ab176660), following the manufacturer guidelines and adding the HALT™ Proteases & Phosphatases inhibitor cocktail (Thermo Fisher Scientific) to the lysis buffer provided with the kit. To quantify pERK1/2 and total ERK, 40 µg and 5 µg of total protein extract were used from each well, respectively. The chromogenic signals were read at the Sunrise Tecan multi-plate reader and expressed as pERK/ERKTotal signal ratio. […] AKT phosphorylation was quantified by ELISA as above in cell lysates after 5 min stimulation, with the AKT (pS473 + Total) ELISA Kit from Abcam (cat. n. ab176657).
Supplementary Figure 2 | Effects of S1PR1 overexpression in HEK293 cells. […]
20 nM EGF for 5 min. pERK1/2 or pAKT were measured in the cell extracts by ELISA and expressed as relative units; n=12 independent experiments. […]
(§1) ELISA and expressed as relative units; n=3 independent experiments. […]
without 30 min pre-treatment with 100 µM ML056. Cell extracts were then analysed in immunoblotting for S1PR1, ERK1/2 and pERK1/2.

[2] = tested on: HEK293 S1PR1 expressing cells; experiment: AKT phosphorylation ELISA in HEK293 S1PR1 expressing cells; settings: 0.1 µM S1P or FTY720-P for 5 min, PTX 300 ng/mL, CCG215022 50 µM
Experimental: HEK293 cells were plated in 96 multi-well plates and grown until 90% confluent. […] To quantify pERK1/2 and total ERK, 40 µg and 5 µg of total protein extract were used from each well, respectively. The chromogenic signals were read at the Sunrise Tecan multi-plate reader and expressed as pERK/ERKTotal signal ratio. […] AKT phosphorylation was quantified by ELISA as above in cell lysates after 5 min stimulation, with the AKT (pS473 + Total) ELISA Kit from Abcam (cat. n. ab176657). […]
pertussis toxin (PTX) for 18 hours and with 0.1% DMSO alone or with 50 µM CCG215022 […]
20 nM EGF for 5 min. pERK1/2 or pAKT were measured in the cell extracts by ELISA and expressed as relative units; n=12 independent experiments. (b) HEK293 cells expressing […]
as §1

[3] = tested on: HEK293 cells expressing S1PR1-eGFP; experiment: Fluorescence-based analysis of S1PR1 down-modulation, S1PR1-eGFP; settings: 4 h-long treatment
Experimental: (§7) Cells were washed twice in ice-cold phosphate-buffered saline and lysed in 20 mM HEPES, 150 mM NaCl, 1% Triton X-100, 0.15% Nonidet P-40, 1× HALT™ Proteases & Phosphatases inhibitor cocktail, 1.25 U/mL Benzonase. Lysates were clarified were used and 50 µg of total protein from each sample were read in the Cary Eclipse Varian spectrofluorometer with 488 nm λEx and 509 nm λEm to measure the eGFP amount.

[4] = tested on: HEK293 cells expressing mS1PR1-eGFP; experiment: Anti-GFP immunoprecipitation of mS1PR1-eGFP, immunoblot for β-arrestin 1/2 and ERK1/2; settings: 0.1 µM, co-immunoprecipitation
Experimental: (§2) Cells were washed twice in ice-cold phosphate-buffered saline and lysed in 20 mM HEPES, 150 mM NaCl, 1% Triton X-100, 0.15% Nonidet P-40, 1× HALT™ Proteases and Phosphatases inhibitor cocktail, 1.25 U/mL Benzonase. Clarified lysates were incubated for 1 h at +4 °C with GFP-Trap® resin (Chromotek) and extensively washed with lysis buffer. Finally, the immunopurified material was eluted in 4% SDS and analysed by immunoblot. The equal loading was based on the GFP amount reading the samples in the Cary Eclipse Varian spectrofluorometer with 488 nm λEx and 509 nm λEm. In some experiments, cells expressing S1PR1 without the GFP tag were used as control and the equal loading was based on total protein concentration measured with the BCA method (G Biosciences).

[5] = tested on: HEK293 cells expressing S1PR1-eGFP; experiment: Confocal microscopy count of cytosolic eGFP+ clusters (receptor internalisation), S1PR1-eGFP; settings: 0.1 µM, 20 min
Experimental: (§3) Cells expressing S1PR1-eGFP or mS1PR1-eGFP were plated onto poly-L-lysine-coated 8 well µ-slides (Ibidi) at 3 × 10^4 cell/well. […] Images were deconvoluted using Huygens Professional Software (Scientific Volume Imaging). Mid-plane z-sections were used for counting cytosolic GFP^+ vesicles in cells stimulated for 20 min. Confocal imaging was performed at the Advanced Light and Electron Microscopy Bioimaging Centre of IRCCS San Raffaele Scientific Institute. We used a custom Matlab script (Supplementary Data 1) performing the following image analysis: (i) the membranes were segmented from the image, identifying regions of both absolute and local high intensity (Supplementary Fig. 9A–G) in order to include all the membranes independently of their intensity; (ii) morphological erosion was used to clear small objects and to smooth the edges of the identified membranes (Supplementary Fig. 9H, I); (iii) the region of interest was defined as the region completely enclosed by a membrane (Supplementary Fig. 9J, K); (iv) GFP^+ cytosolic vesicles were identified as local intensity maxima (Supplementary Fig. 9L–O) within the region of interest and counted. Experiments were replicated independently three times. The number of vesicles from 40 to 150 cells were counted as detailed in Fig. 4 legend and the statistical analysis performed with the GraphPad Prism software.

[6] = tested on: HEK293 cells expressing S1PR1; experiment: ERK1/2 phosphorylation ELISA/immunoblot in HEK293 cells expressing S1PR1
Experimental: (§4) Human embryonic kidney-293 (HEK293, ATCC CRL-1573) cells were routinely maintained in complete DMEM/F12 1:1 mixture (Sigma Aldrich) containing 10% FBS and 0.5 mM N-acetyl cysteine. Mycoplasma detection was performed routinely by checking for cytoplasmic DNA and every six months with Universal Mycoplasma Detection Kit (ATCC 30–1012 K). The stop-less coding sequences of either wild-type S1PR1 or mS1PR1 (without the additional modifications present in the constructs for the protein production) were obtained from GeneArt (Thermo Fisher Scientific) and inserted into the HindIII/BamHI-digested pEGFP-N1 vector (Takara) to express S1PR1- and mS1PR1-eGFP. The pEFGP-N1-S1PR1 or pEFGP-N1-mS1PR1 plasmids were further modified by re-introducing the TAG stop codon at the 3′ end of the S1PR1 open reading frame to express untagged S1PR1 or mS1PR1, respectively, using the primer pair 5’-[…]-3’ and 5′-[…]-3′. Cell monolayers were transfected with JetPEI™ (Polyplus) and the appropriate plasmid vectors. Transfected cell cultures were passed once a week for three times and then the GFP^+ cells were sorted in a MoFlo XDP (Beckman Coulter). Sorted cell cultures were expanded and sorted again and the expression of the desired chimeric protein verified by immunoblot. Sorting was performed at the Flow Cytometry Resourc, Advanced Cytometry Technical Applications Laboratory of IRCCS San Raffaele Scientific Institute.
(§5) Two hundred nanomole of S1PR1/L of culture medium were used at […] receptor concentration. Under sterile conditions, purified receptor was first dialysed three times against the serum-free medium. Medium-equilibrated S1PR1 was then incubated 24 h at +4 °C in complete culture medium. The depletion procedure was performed twice for each lot of culture medium. […] The depleted medium was also used to prepare 1000× stock solutions of each of the two S1PR1 agonists or the GRK inhibitor CCG215022, and the 10× ML056 stock solution used in the cell-based experiments.
(§6) HEK293 cells were plated in 96 multi-well plates and grown until 90% confluent. […] To quantify pERK1/2 and total ERK, 40 µg and 5 µg of total protein extract were used from each well, respectively. The chromogenic signals were read at the Sunrise Tecan multi-plate reader and expressed as pERK/ERKTotal signal ratio. […] AKT phosphorylation was quantified by ELISA as above in cell lysates after 5 min stimulation, with the AKT (pS473 + Total) ELISA Kit from Abcam (cat. n. ab176657).

[7] = tested on: HEK293 cells expressing mS1PR1; experiment: ERK1/2 phosphorylation ELISA/immunoblot in HEK293 cells expressing mS1PR1; settings: for change of potency in stimulating ERK phosphorylation, mS1PR1 vs S1PR1 clones / maximal pERK response in mS1PR1 vs S1PR1 clones: 5 min stimulation, 1 pM–1 mM ligand
Experimental: 95% CI are reported in Supplementary Fig. 4.
as §4, §5, §6

[8] = tested on: HEK293 cells expressing mS1PR1-eGFP; experiment: Confocal microscopy count of cytosolic eGFP+ clusters (receptor internalisation), mS1PR1-eGFP; settings: 0.1 µM, 20 min
Experimental: as §3

[9] = tested on: HEK293 cells expressing S1PR1-eGFP; experiment: Anti-GFP immunoprecipitation of S1PR1-eGFP, immunoblot for β-arrestin 1/2 and ERK1/2; settings: 0.1 µM, co-immunoprecipitation; for S1PR1 binding to β-arrestins in the late signalling phase: 30 min
Experimental: as §2

[10] = tested on: HEK293 cells expressing mS1PR1-eGFP; experiment: Fluorescence-based analysis of S1PR1 down-modulation, mS1PR1-eGFP; settings: 4 h-long treatment
Experimental: as §7

Row | Molecule | effect on AKT phosphorylation [2] | stable interaction of mS1PR1 with β-arrestin [4] | number of clusters/cell, 95% CI [5] | change of potency in stimulating ERK phosphorylation, mS1PR1 vs S1PR1 clones [7] | maximal pERK response in mS1PR1 vs S1PR1 clones [7] | number of clusters/cell, 95% CI [8] | S1PR1 binding to β-arrestins in the late signalling phase [9] | ERK1/2 recruited onto activated S1PR1 [9] | other results
1 | CC1=C(C(=O)Nc2ccc3[nH]ncc3c2)C(c2ccc(F)c(C(=O)NCc3ccccn3)c2)NC(=O)N1 (centres unmarked) [CCG215022] | not modified |  |  |  |  |  |  |  | effect on EGF-mediated ERK1/2 phosphorylation [1]: does not inhibit
2 | CCCCCCCCc1ccc(CC[C@](N)(CO)COP(=O)(O)O)cc1 [FTY720-P, FTY720 (S)-phosphate] | induced | neither S1P nor FTY720-P were capable to induce a stable interaction | 9.9–14.1 clusters/cell | ten-fold decrease of their potency | not affected | 8.7–11 clusters/cell | stable binding to β-arrestins | did not show an increase of the interaction with ERK1/2 above baseline levels | S1PR1 level in cell lysates (receptor degradation) [3]: barely detectable; time at which pERK1/2 response decreased to the baseline level ([6]; 0.1 µM agonist): 20 min; time of early pERK1/2 peak ([6]; 0.1 µM agonist, S1P-starved cells): 5 min; pERK1/2 kinetics in mS1PR1 cells ([7]; 0.1 µM agonist): stable level of ERK1/2 phosphorylation; mS1PR1 level in cell lysates (receptor degradation) [10]: remained stable
3 | CCCCCCc1cccc(NC(=O)[C@H](N)CCP(=O)(O)O)c1 [ML056] |  |  |  |  |  |  |  |  | effect on agonist-induced signalling response (pERK1/2) ([6]; 30 min pre-treatment with 100 µM ML056, then 0.1 µM S1P, immunoblot): abrogated
4 | CCCCCCCCCCCCC/C=C/[C@@H](O)[C@@H](N)COP(=O)(O)O [S1P, Sphingosine 1-phosphate] | induced | neither S1P nor FTY720-P were capable to induce a stable interaction | 6.7–10.2 clusters/cell | ten-fold decrease of their potency | not affected | 5.7–7.7 clusters/cell | only a limited interaction | recruited more ERK1/2 | pERK1/2 still detectable after 60 min, % of its maximal value [6]: 50%; time of early pERK1/2 peak [6]: 5 min
5 | pertussis toxin | abolishes |  |  |  |  |  |  |  | effect on S1P- and FTY720-P-induced ERK1/2 phosphorylation ([6]; 300 ng/mL pertussis toxin for 18 h, then 0.1 µM agonist): undetectable; effect on agonist-induced ERK phosphorylation in mS1PR1-expressing clones ([7]; 300 ng/mL PTX, stimulation with either agonist): reduced the ERK phosphorylation to basal

Source: publication PMC6962373, “Combinatorial allosteric modulation of agonist response in a self-interacting G-protein coupled receptor” (Communications Biology, 2020)
